Measured values as given in the supplement of paper PMC11451515.

Tests used:
Assay in all cases: AUC of viability dose-response curve (% viability x log10 dose units); higher = less sensitive
Conditions in all cases: 48 h
P12-Ichikawa = system: P12-Ichikawa
Outline: (§1)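 In 1536-well plates, leukemia cells adapted to each medium (500 or 1000 cells/well) were exposed for 48 h at 37°C to library compounds in DMSO across 11 threefold doses, 47 μM down to 0.79 nM. Viability was read by CellTiter-Glo One luminescence and normalised per plate to DMSO and cell-free wells. A four-parameter log-logistic fit over log10 doses was integrated by trapezoidal rule. This yielded the area under the curve, with over-full-viability curves scaled and quality-control failures dropped.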

NOMO1 = system: NOMO1
Outline: as §1

SEM cells = system: SEM cells
Outline: as §1

[1] = RPMI 5 mM glucose + 10% dialyzed FBS

Structure (SMILES): CCN(CC)CCOC1=CC=C(NC2=NC=C3\C=C(/C(=O)N(C)C3=N2)C4=C(Cl)C=CC=C4Cl)C=C1
- AUC of viability dose-response curve (P12-Ichikawa; HPLM + 10% dialyzed FBS): 371
- AUC of viability dose-response curve (P12-Ichikawa; RPMI 5 mM glucose + 10% FBS): 365
- AUC of viability dose-response curve (P12-Ichikawa; [1]): 367
- AUC of viability dose-response curve (NOMO1; HPLM + 10% dialyzed FBS): 343
- AUC of viability dose-response curve (NOMO1; RPMI 5 mM glucose + 10% FBS): 359
- AUC of viability dose-response curve (NOMO1; [1]): 355

Structure (SMILES): COc1cc(N2CCC(N3CCN(C)CC3)CC2)ccc1Nc1ncnc(Nc2ccccc2[S+](=O)([O-])C(C)C)n1
- AUC of viability dose-response curve (SEM cells; HPLM + 10% dialyzed FBS): 361
- AUC of viability dose-response curve (SEM cells; RPMI 5 mM glucose + 10% FBS): 354
- AUC of viability dose-response curve (SEM cells; [1]): 400
- AUC of viability dose-response curve (P12-Ichikawa; HPLM + 10% dialyzed FBS): 447
- AUC of viability dose-response curve (P12-Ichikawa; RPMI 5 mM glucose + 10% FBS): 458
- AUC of viability dose-response curve (P12-Ichikawa; [1]): 451

Structure (SMILES): c1ccc2c(-c3cnn4cc(-c5ccc(N6CCNCC6)cc5)cnc34)ccnc2c1
- AUC of viability dose-response curve (SEM cells; HPLM + 10% dialyzed FBS): 355
- AUC of viability dose-response curve (SEM cells; RPMI 5 mM glucose + 10% FBS): 379
- AUC of viability dose-response curve (SEM cells; [1]): 394

Structure (SMILES): CN[C@@H](C)C(=O)N[C@H]1CCCC[C@H]2CC[C@@H](C(=O)N[C@@H](c3ccccc3)c3cn(CCCCc4ccc(CCCCn5cc([C@@H](NC(=O)[C@@H]6CC[C@@H]7CCCC[C@H](NC(=O)[C@H](C)NC)C(=O)N76)c6ccccc6)nn5)cc4)nn3)N2C1=O
- AUC of viability dose-response curve (SEM cells; HPLM + 10% dialyzed FBS): 431
- AUC of viability dose-response curve (SEM cells; RPMI 5 mM glucose + 10% FBS): 417
- AUC of viability dose-response curve (SEM cells; [1]): 418
- AUC of viability dose-response curve (P12-Ichikawa; HPLM + 10% dialyzed FBS): 465
- AUC of viability dose-response curve (P12-Ichikawa; RPMI 5 mM glucose + 10% FBS): 471
- AUC of viability dose-response curve (P12-Ichikawa; [1]): 450
- AUC of viability dose-response curve (NOMO1; HPLM + 10% dialyzed FBS): 250
- AUC of viability dose-response curve (NOMO1; RPMI 5 mM glucose + 10% FBS): 325
- AUC of viability dose-response curve (NOMO1; [1]): 297

Structure (SMILES): Cc1c(OCC(F)(F)F)ccnc1C[S+]([O-])c1nc2ccccc2[nH]1 (stereo not drawn)
- AUC of viability dose-response curve (SEM cells; HPLM + 10% dialyzed FBS): 420
- AUC of viability dose-response curve (SEM cells; RPMI 5 mM glucose + 10% FBS): 475
- AUC of viability dose-response curve (SEM cells; [1]): 453
- AUC of viability dose-response curve (P12-Ichikawa; HPLM + 10% dialyzed FBS): 466
- AUC of viability dose-response curve (P12-Ichikawa; RPMI 5 mM glucose + 10% FBS): 459
- AUC of viability dose-response curve (P12-Ichikawa; [1]): 471
- AUC of viability dose-response curve (NOMO1; HPLM + 10% dialyzed FBS): 456
- AUC of viability dose-response curve (NOMO1; RPMI 5 mM glucose + 10% FBS): 469
- AUC of viability dose-response curve (NOMO1; [1]): 448

Structure (SMILES): CN(C(=O)c1ccc(F)cc1C(F)(F)F)C1CCN(c2nnc(-c3ccnn3C)c3ccccc23)CC1
- AUC of viability dose-response curve (SEM cells; HPLM + 10% dialyzed FBS): 331
- AUC of viability dose-response curve (SEM cells; RPMI 5 mM glucose + 10% FBS): 373
- AUC of viability dose-response curve (SEM cells; [1]): 326
- AUC of viability dose-response curve (P12-Ichikawa; HPLM + 10% dialyzed FBS): 387
- AUC of viability dose-response curve (P12-Ichikawa; RPMI 5 mM glucose + 10% FBS): 365
- AUC of viability dose-response curve (P12-Ichikawa; [1]): 355

Structure (SMILES): O=C1[O][Pt]2([NH]C3CCCCC3[NH]2)[O]C1=O (stereo not drawn)
- AUC of viability dose-response curve (NOMO1; HPLM + 10% dialyzed FBS): 400
- AUC of viability dose-response curve (NOMO1; RPMI 5 mM glucose + 10% FBS): 403
- AUC of viability dose-response curve (NOMO1; [1]): 419

Structure (SMILES): CC(Oc1ccc(O)cc1)(P(=O)(O)O)P(=O)(O)O
- AUC of viability dose-response curve (SEM cells; HPLM + 10% dialyzed FBS): 427
- AUC of viability dose-response curve (SEM cells; RPMI 5 mM glucose + 10% FBS): 420
- AUC of viability dose-response curve (SEM cells; [1]): 421
- AUC of viability dose-response curve (P12-Ichikawa; HPLM + 10% dialyzed FBS): 434
- AUC of viability dose-response curve (P12-Ichikawa; RPMI 5 mM glucose + 10% FBS): 401
- AUC of viability dose-response curve (P12-Ichikawa; [1]): 418
- AUC of viability dose-response curve (NOMO1; HPLM + 10% dialyzed FBS): 415
- AUC of viability dose-response curve (NOMO1; RPMI 5 mM glucose + 10% FBS): 399
- AUC of viability dose-response curve (NOMO1; [1]): 405

Structure (SMILES): CCOc1ccccc1OCCNC(C)Cc1ccc(OC)c([S+](N)(=O)[O-])c1 (stereo not drawn)
- AUC of viability dose-response curve (SEM cells; HPLM + 10% dialyzed FBS): 459
- AUC of viability dose-response curve (SEM cells; RPMI 5 mM glucose + 10% FBS): 462
- AUC of viability dose-response curve (SEM cells; [1]): 464
- AUC of viability dose-response curve (P12-Ichikawa; HPLM + 10% dialyzed FBS): 471
- AUC of viability dose-response curve (P12-Ichikawa; RPMI 5 mM glucose + 10% FBS): 462
- AUC of viability dose-response curve (P12-Ichikawa; [1]): 471
- AUC of viability dose-response curve (NOMO1; HPLM + 10% dialyzed FBS): 468
- AUC of viability dose-response curve (NOMO1; RPMI 5 mM glucose + 10% FBS): 461
- AUC of viability dose-response curve (NOMO1; [1]): 466

Structure (SMILES): C[C@H]1[C@@H](CC(C[C@H]2O[C@@H]3O[C@]4(C)CC[C@H]5[C@H](C)CC[C@@H]([C@H]2C)[C@@]35OO4)C[S+](=O)([O-])c2ccc(COC(=O)N(C)C)cc2)O[C@@H]2O[C@]3(C)CC[C@H]4[C@H](C)CC[C@@H]1[C@@]24OO3
- AUC of viability dose-response curve (SEM cells; HPLM + 10% dialyzed FBS): 297
- AUC of viability dose-response curve (SEM cells; RPMI 5 mM glucose + 10% FBS): 284
- AUC of viability dose-response curve (SEM cells; [1]): 284
- AUC of viability dose-response curve (P12-Ichikawa; HPLM + 10% dialyzed FBS): 351
- AUC of viability dose-response curve (P12-Ichikawa; RPMI 5 mM glucose + 10% FBS): 348
- AUC of viability dose-response curve (P12-Ichikawa; [1]): 341
- AUC of viability dose-response curve (NOMO1; HPLM + 10% dialyzed FBS): 301
- AUC of viability dose-response curve (NOMO1; RPMI 5 mM glucose + 10% FBS): 329
- AUC of viability dose-response curve (NOMO1; [1]): 299

Structure (SMILES): CN(C)c1ccc(C(=O)NCCCCCCC(=O)NO)cc1
- AUC of viability dose-response curve (SEM cells; HPLM + 10% dialyzed FBS): 311
- AUC of viability dose-response curve (SEM cells; RPMI 5 mM glucose + 10% FBS): 314
- AUC of viability dose-response curve (SEM cells; [1]): 316
- AUC of viability dose-response curve (P12-Ichikawa; HPLM + 10% dialyzed FBS): 329
- AUC of viability dose-response curve (P12-Ichikawa; RPMI 5 mM glucose + 10% FBS): 330
- AUC of viability dose-response curve (P12-Ichikawa; [1]): 317
- AUC of viability dose-response curve (NOMO1; HPLM + 10% dialyzed FBS): 358
- AUC of viability dose-response curve (NOMO1; RPMI 5 mM glucose + 10% FBS): 343
- AUC of viability dose-response curve (NOMO1; [1]): 354

Structure (SMILES): COc1ccc2cc(-c3[nH]c(-c4ccc([S+](C)[O-])cc4)nc3-c3ccncc3)ccc2c1 (stereo not drawn)
- AUC of viability dose-response curve (SEM cells; HPLM + 10% dialyzed FBS): 451
- AUC of viability dose-response curve (SEM cells; RPMI 5 mM glucose + 10% FBS): 463
- AUC of viability dose-response curve (SEM cells; [1]): 460
- AUC of viability dose-response curve (P12-Ichikawa; HPLM + 10% dialyzed FBS): 472
- AUC of viability dose-response curve (P12-Ichikawa; RPMI 5 mM glucose + 10% FBS): 468
- AUC of viability dose-response curve (P12-Ichikawa; [1]): 464
- AUC of viability dose-response curve (NOMO1; HPLM + 10% dialyzed FBS): 461
- AUC of viability dose-response curve (NOMO1; RPMI 5 mM glucose + 10% FBS): 390
- AUC of viability dose-response curve (NOMO1; [1]): 435

Structure (SMILES): c1cc(OCCN2CCCCC2)cc(-c2n[nH]c3ccc(-c4nc[nH]n4)cc23)c1
- AUC of viability dose-response curve (SEM cells; HPLM + 10% dialyzed FBS): 412
- AUC of viability dose-response curve (SEM cells; RPMI 5 mM glucose + 10% FBS): 441
- AUC of viability dose-response curve (SEM cells; [1]): 413
- AUC of viability dose-response curve (NOMO1; HPLM + 10% dialyzed FBS): 467
- AUC of viability dose-response curve (NOMO1; RPMI 5 mM glucose + 10% FBS): 463
- AUC of viability dose-response curve (NOMO1; [1]): 468
